Data as given in ChEMBL document CHEMBL5725720, “Pyrazolopyridines and pyrazolopyrimidines” (2016).

Target: Tyrosine-protein kinase JAK2 (Homo sapiens, UniProt O60674)
Experiment: (§1) JAK Caliper Enzyme Assay at 1 mM ATP: Test article was solubilized in dimethyl sulfoxide (DMSO) to a stock concentration of 30 mM. An 11-point half log dilution series was created in DMSO with a top concentration of 600 μM. […] The compound plates were diluted 1 to 60 resulting in a top final assay compound concentration of 10 μM and a 2% DMSO concentration.Test article and assay controls were added to a 384-well plate. Reaction mixtures contained 20 mM HEPES, pH 7.4, 10 mM magnesium chloride, 0.01% bovine serum albumin (BSA), 0.0005% Tween 20, 1 mM ATP and 1 μM peptide substrate. […] Enzyme concentrations and incubation times were optimized for each new enzyme preps and were modified slightly over time to ensure 20%-30% phosphorylation. The assays were stopped with a final concentration of 10 mM EDTA, 0.1% Coating Reagent and 100 mM HEPES, pH=7.4. The assay plates were placed on a Caliper Life Science Lab Chip 3000 (LC3000) instrument, and each well was sampled using appropriate separation conditions to measure the unphosphorylated and phosphorylated peptide.

Tyrosine-protein kinase JAK2, sequence (O60674 whole entry): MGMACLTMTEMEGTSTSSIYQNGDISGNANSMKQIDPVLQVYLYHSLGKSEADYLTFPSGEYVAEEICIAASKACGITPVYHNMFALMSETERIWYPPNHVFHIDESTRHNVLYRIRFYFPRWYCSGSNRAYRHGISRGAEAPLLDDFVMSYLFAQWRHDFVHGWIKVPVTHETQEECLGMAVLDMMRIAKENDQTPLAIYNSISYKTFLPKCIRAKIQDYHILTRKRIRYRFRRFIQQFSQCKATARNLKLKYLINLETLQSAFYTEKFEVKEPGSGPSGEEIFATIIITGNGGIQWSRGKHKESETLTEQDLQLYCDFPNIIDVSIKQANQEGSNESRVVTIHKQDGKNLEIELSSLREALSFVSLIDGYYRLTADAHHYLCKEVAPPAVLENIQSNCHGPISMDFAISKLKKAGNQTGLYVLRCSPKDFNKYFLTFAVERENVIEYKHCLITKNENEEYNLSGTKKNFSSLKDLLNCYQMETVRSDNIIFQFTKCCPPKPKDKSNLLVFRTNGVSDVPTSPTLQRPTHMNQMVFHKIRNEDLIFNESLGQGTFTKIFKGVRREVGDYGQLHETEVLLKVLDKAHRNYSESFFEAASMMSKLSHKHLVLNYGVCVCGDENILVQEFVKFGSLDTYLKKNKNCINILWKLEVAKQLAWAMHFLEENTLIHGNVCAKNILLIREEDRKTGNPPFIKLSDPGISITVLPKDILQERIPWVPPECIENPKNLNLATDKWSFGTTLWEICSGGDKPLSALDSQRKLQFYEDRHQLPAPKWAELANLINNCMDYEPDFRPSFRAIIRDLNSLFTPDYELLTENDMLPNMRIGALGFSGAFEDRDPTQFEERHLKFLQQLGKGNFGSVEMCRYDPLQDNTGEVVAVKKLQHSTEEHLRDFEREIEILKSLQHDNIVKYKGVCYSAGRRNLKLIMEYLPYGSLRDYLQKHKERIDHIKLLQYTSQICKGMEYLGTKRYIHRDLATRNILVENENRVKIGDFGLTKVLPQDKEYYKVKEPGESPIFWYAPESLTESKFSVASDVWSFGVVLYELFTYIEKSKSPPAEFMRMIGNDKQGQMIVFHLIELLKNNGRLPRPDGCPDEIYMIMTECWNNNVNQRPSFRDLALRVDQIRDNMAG

IC50 | SMILES
52.4 nM | CCc1cc(O)ccc1-c1cc2[nH]ncc2c(N2CCc3ccc(OC)c(OC)c3C2)n1
16.9 nM | CCc1cc(O)ccc1-c1cc2[nH]ncc2c(N2CCc3cc(F)ccc3C2)n1
25.9 nM | CCc1cc(O)ccc1-c1cc2[nH]ncc2c(N2CCc3cc(OCCOC)ccc3C2)n1
123 nM | CN(c1ccc(O)cc1CNc1nc(-c2cc(F)c(O)cc2CC(F)(F)F)nc2[nH]nc(C(N)=O)c12)S(=O)(=O)c1ccccc1
43.2 nM | CCCCN(c1ccccc1CN(C)c1nc(-c2cc(F)c(O)cc2CC)cc2[nH]ncc12)S(C)(=O)=O
46.5 nM | CCc1cc(O)ccc1-c1cc2[nH]ncc2c(N2CCc3c(Cl)cccc3C2)n1
41.1 nM | CN(c1ccc(F)cc1CNc1nc(-c2cc(F)c(O)cc2CC(F)(F)F)cc2[nH]nc(C(N)=O)c12)S(C)(=O)=O
26.3 nM | CCc1cc(O)ccc1-c1cc2[nH]ncc2c(N2CCc3cc(-n4cnc(C)c4)ccc3C2)n1

SMILES | IC50
CCc1cc(O)ccc1-c1cc2[nH]ncc2c(N2CCc3cccc(OC)c3C2)n1 | 25.1 nM
CSCCNc1nc(-c2cc(F)c(O)cc2CC(F)(F)F)cc2[nH]nc(-c3nc4c([nH]3)CCN(Cc3ccccc3)C4)c12 | 196 nM

Target: T1, Tyrosine-protein kinase JAK3 (Homo sapiens, UniProt P52333)
T1 sequence (P52333 whole entry): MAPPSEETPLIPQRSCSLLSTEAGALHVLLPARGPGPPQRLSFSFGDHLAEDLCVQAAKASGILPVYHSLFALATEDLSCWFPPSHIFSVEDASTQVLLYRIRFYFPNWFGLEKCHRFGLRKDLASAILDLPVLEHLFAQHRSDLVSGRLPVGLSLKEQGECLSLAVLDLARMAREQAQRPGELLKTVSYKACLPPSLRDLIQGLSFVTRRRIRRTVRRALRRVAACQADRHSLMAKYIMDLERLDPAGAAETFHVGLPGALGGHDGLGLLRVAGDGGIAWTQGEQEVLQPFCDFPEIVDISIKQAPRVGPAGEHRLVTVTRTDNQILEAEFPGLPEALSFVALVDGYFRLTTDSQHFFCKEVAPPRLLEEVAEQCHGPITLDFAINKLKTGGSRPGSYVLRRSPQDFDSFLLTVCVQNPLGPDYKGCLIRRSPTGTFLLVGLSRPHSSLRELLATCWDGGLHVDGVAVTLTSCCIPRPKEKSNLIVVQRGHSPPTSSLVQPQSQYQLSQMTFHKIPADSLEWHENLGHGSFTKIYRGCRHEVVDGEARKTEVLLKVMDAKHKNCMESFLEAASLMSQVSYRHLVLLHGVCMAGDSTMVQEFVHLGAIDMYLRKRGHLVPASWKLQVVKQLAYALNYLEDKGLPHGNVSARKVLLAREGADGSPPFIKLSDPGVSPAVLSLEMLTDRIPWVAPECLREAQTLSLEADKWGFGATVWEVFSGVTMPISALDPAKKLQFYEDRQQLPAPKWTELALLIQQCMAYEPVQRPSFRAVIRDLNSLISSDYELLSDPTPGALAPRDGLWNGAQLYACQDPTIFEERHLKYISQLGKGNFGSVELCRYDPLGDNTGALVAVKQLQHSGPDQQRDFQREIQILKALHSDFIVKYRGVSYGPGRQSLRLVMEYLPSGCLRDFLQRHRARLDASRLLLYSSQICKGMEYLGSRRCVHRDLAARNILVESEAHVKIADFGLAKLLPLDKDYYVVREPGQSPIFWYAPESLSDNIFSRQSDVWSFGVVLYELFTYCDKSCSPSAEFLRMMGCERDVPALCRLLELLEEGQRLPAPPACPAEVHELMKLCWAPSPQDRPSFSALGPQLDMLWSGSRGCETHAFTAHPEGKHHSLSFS
Experiment: as §1, with “substrate. The JAK1 and TYK2 assays contained 1 μM of the IRStide peptide (5FAM-[…]) and the JAK2 and JAK3 assays contained 1 μM of the JAKtide peptide (FITC-[…]).” for “substrate.”

IC50 | SMILES
194 nM | CCc1cc(O)ccc1-c1cc2[nH]ncc2c(N2CCc3ccc(OC)c(OC)c3C2)n1
40.8 nM | CCc1cc(O)ccc1-c1cc2[nH]ncc2c(N2CCc3cc(F)ccc3C2)n1
56.2 nM | CCc1cc(O)ccc1-c1cc2[nH]ncc2c(N2CCc3cc(OCCOC)ccc3C2)n1
340 nM | CCc1cc(O)ccc1-c1cc2[nH]ncc2c(N2CCc3cc(OC)c(OCc4ccccc4)cc3C2)n1
61.6 nM | CCCCN(c1ccccc1CN(C)c1nc(-c2cc(F)c(O)cc2CC)cc2[nH]ncc12)S(C)(=O)=O
111 nM | CCc1cc(O)ccc1-c1cc2[nH]ncc2c(N2CCc3c(Cl)cccc3C2)n1
140 nM | CN(c1ccc(F)cc1CNc1nc(-c2cc(F)c(O)cc2CC(F)(F)F)cc2[nH]nc(C(N)=O)c12)S(C)(=O)=O
17.3 nM | CCc1cc(O)c(F)cc1-c1cc2[nH]ncc2c(NCc2ccccc2N(C)S(=O)(=O)CC)n1
42.4 nM | CCc1cc(O)ccc1-c1cc2[nH]ncc2c(N2CCc3cc(-n4cnc(C)c4)ccc3C2)n1

SMILES | IC50
CCc1cc(O)ccc1-c1cc2[nH]ncc2c(N2CCc3cccc(OC)c3C2)n1 | 78.1 nM
CSCCNc1nc(-c2cc(F)c(O)cc2CC(F)(F)F)cc2[nH]nc(-c3nc4c([nH]3)CCN(Cc3ccccc3)C4)c12 | 589 nM

Target: Tyrosine-protein kinase JAK1 (Homo sapiens, UniProt P23458)
Experiment: as above

Tyrosine-protein kinase JAK1, sequence (P23458 whole entry): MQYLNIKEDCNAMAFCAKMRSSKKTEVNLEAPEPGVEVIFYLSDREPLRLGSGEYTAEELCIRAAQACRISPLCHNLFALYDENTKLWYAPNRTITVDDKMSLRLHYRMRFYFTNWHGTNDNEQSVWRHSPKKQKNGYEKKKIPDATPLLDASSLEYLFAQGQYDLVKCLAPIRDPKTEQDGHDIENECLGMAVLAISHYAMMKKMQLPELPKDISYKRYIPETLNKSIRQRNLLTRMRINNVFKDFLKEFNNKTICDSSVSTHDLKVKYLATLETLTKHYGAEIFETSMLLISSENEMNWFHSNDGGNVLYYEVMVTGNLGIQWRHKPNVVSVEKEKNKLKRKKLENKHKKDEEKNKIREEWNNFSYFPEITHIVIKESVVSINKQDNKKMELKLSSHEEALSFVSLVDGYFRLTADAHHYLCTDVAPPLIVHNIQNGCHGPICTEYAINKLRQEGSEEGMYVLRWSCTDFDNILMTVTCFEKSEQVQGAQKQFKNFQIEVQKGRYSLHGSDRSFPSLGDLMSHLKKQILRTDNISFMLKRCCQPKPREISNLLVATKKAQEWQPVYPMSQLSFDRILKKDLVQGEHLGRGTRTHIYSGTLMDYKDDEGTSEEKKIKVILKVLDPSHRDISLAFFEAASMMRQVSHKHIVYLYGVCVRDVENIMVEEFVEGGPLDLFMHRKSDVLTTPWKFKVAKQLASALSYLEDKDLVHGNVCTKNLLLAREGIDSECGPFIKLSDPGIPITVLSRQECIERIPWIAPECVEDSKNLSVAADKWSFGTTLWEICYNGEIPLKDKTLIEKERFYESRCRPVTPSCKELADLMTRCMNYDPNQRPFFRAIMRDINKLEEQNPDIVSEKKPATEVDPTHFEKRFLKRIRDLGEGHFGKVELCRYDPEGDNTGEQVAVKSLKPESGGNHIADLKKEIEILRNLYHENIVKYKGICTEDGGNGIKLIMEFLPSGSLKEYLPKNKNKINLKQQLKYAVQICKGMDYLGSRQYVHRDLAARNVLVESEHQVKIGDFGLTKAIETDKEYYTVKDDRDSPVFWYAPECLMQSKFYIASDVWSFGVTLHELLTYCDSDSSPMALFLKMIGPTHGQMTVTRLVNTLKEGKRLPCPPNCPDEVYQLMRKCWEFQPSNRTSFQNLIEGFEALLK

IC50 | SMILES
13.8 nM | CCc1cc(O)ccc1-c1cc2[nH]ncc2c(N2CCc3ccc(OC)c(OC)c3C2)n1
3.2 nM | CC(=O)N1CCc2[nH]c(-c3n[nH]c4nc(-c5cc(F)c(O)cc5CC(F)(F)F)nc(NCc5cc(O)ccc5N(C)S(C)(=O)=O)c34)nc2C1
9.7 nM | CCc1cc(O)ccc1-c1cc2[nH]ncc2c(N2CCc3cc(F)ccc3C2)n1
10.1 nM | CCc1cc(O)ccc1-c1cc2[nH]ncc2c(N2CCc3cc(OCCOC)ccc3C2)n1
67.4 nM | CCc1cc(O)ccc1-c1cc2[nH]ncc2c(N2CCc3cc(OC)c(OCc4ccccc4)cc3C2)n1
19.5 nM | CCCCN(c1ccccc1CN(C)c1nc(-c2cc(F)c(O)cc2CC)cc2[nH]ncc12)S(C)(=O)=O
39.4 nM | CCc1cc(O)ccc1-c1cc2[nH]ncc2c(N2CCc3c(Cl)cccc3C2)n1
6.6 nM | CN(c1ccc(F)cc1CNc1nc(-c2cc(F)c(O)cc2CC(F)(F)F)cc2[nH]nc(C(N)=O)c12)S(C)(=O)=O
0.7 nM | CCc1cc(O)c(F)cc1-c1cc2[nH]ncc2c(NCc2ccccc2N(C)S(=O)(=O)CC)n1
10.7 nM | CCc1cc(O)ccc1-c1cc2[nH]ncc2c(N2CCc3cc(-n4cnc(C)c4)ccc3C2)n1

SMILES | IC50
CSCCNc1nc(-c2cc(F)c(O)cc2CC(F)(F)F)cc2[nH]nc(-c3nc4c([nH]3)CCN(Cc3ccccc3)C4)c12 | 50 nM

Target: Non-receptor tyrosine-protein kinase TYK2 (Homo sapiens, UniProt P29597)
Experiment: as above

Non-receptor tyrosine-protein kinase TYK2, sequence (P29597 whole entry): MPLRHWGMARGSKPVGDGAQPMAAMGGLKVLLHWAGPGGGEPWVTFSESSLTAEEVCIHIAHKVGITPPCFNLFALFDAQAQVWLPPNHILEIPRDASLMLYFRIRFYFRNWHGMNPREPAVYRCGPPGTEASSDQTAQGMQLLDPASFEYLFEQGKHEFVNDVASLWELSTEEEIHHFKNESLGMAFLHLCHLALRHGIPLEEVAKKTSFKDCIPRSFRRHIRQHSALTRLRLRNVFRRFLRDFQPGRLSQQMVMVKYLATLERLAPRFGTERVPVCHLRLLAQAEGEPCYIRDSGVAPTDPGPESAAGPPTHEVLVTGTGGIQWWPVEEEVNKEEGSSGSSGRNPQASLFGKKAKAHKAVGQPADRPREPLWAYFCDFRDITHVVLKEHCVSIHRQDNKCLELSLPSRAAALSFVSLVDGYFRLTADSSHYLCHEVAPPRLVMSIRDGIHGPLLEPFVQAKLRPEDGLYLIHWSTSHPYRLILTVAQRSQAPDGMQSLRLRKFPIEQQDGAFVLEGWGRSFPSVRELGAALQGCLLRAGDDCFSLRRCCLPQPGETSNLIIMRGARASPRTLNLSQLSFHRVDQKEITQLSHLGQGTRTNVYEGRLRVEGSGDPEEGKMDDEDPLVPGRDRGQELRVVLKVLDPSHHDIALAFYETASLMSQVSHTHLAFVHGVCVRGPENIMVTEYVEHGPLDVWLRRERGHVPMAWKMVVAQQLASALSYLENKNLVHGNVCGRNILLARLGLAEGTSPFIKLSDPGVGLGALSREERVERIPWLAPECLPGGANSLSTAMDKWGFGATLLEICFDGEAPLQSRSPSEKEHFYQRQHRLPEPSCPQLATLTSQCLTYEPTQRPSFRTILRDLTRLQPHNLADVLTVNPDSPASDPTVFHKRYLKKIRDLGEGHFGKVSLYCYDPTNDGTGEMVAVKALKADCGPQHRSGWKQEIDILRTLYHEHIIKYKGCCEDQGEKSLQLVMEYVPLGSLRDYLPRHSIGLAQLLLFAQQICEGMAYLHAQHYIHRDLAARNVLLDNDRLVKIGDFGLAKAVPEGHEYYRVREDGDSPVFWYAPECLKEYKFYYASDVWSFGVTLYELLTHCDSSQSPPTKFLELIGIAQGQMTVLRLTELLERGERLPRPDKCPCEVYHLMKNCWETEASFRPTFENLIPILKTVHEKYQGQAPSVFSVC

IC50 | SMILES
1540 nM | CCc1cc(O)ccc1-c1cc2[nH]ncc2c(N2CCc3ccc(OC)c(OC)c3C2)n1
302 nM | CCc1cc(O)ccc1-c1cc2[nH]ncc2c(N2CCc3cc(F)ccc3C2)n1
289 nM | CCc1cc(O)ccc1-c1cc2[nH]ncc2c(N2CCc3cc(OCCOC)ccc3C2)n1
2730 nM | CCc1cc(O)ccc1-c1cc2[nH]ncc2c(N2CCc3cc(OC)c(OCc4ccccc4)cc3C2)n1
561 nM | CCc1cc(O)ccc1-c1cc2[nH]ncc2c(N2CCc3c(Cl)cccc3C2)n1
127 nM | CN(c1ccc(F)cc1CNc1nc(-c2cc(F)c(O)cc2CC(F)(F)F)cc2[nH]nc(C(N)=O)c12)S(C)(=O)=O
8.4 nM | CCc1cc(O)c(F)cc1-c1cc2[nH]ncc2c(NCc2ccccc2N(C)S(=O)(=O)CC)n1
723 nM | CCc1cc(O)ccc1-c1cc2[nH]ncc2c(N2CCc3cc(-n4cnc(C)c4)ccc3C2)n1

SMILES | IC50
CCc1cc(O)ccc1-c1cc2[nH]ncc2c(N2CCc3cccc(OC)c3C2)n1 | 478 nM
CSCCNc1nc(-c2cc(F)c(O)cc2CC(F)(F)F)cc2[nH]nc(-c3nc4c([nH]3)CCN(Cc3ccccc3)C4)c12 | 172 nM
